What was measured:
SSTR4 [1] = biological target: T1, SSTR4 (Homo sapiens, UniProt P31391); test: SSTR4 I-125 somatostatin competition binding assay (CHO-K1 membranes); conditions: competition with I-125 somatostatin, membranes from CHO-K1 overexpressing SSTR4; read-out: SSTR4 Binding pIC50 (converted)
T1 construct: host or cells: CHO-K1
Procedure, shortened: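 CHO-K1 membranes overexpressing SSTR4 (1 μg/well) were incubated 60 min at room temperature with compound and I-125 somatostatin (0.2 nM in the compound mix) in 25 mM HEPES pH 7.4, 10 mM MgCl2, 1 mM CaCl2, 0.5% BSA. Bound radioligand was collected on PEI-soaked filters and scintillation-counted, with results reported as pIC50.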

SSTR4 [2] = biological target: T1, SSTR4; test: Inhibition of forskolin stimulated cAMP in CHO-K1 cells overexpressing SSTR4; assay type: cell-based; conditions: read-out: SSTR4 Activity pEC50 (converted)
Procedure, shortened: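 CHO-K1 cells overexpressing SSTR4 treated 30 min at room temperature with compound in Krebs Ringer buffer containing 0.5% BSA, 300 μM IBMX and 350 nM forskolin. Intracellular cAMP measured by HTRF LANCE Ultra (665/615 nm); pEC50 values reported.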

SSTR1 = biological target: T2, SSTR1 (Homo sapiens, UniProt P30872); test: SSTR1 I-125 somatostatin competition binding assay for selectivity versus SSTR1 (CHO-K1 membranes); conditions: competition with I-125 somatostatin, membranes from CHO-K1 overexpressing SSTR1; read-out: SSTR1 Binding pIC50 (converted)
T2 construct: purchased Perkin Elmer ES-520-M400UA; host or cells: CHO-K1 membranes
Method: SSTR1 I-125 Somatostatin Competition Binding Assay for Selectivity Versus SSTR1
Membranes from CHO-K1 cells overexpressing SSTR1 are purchased from Perkin Elmer (catalog number ES-520-M400UA). Test compounds are suspended in DMSO and then diluted in assay buffer (25 mM HEPES pH 7.4, 10 mM MgCl2, 1 mM CaCl2), 0.5% BSA) plus 0.4 nM I-125 labeled somatostatin (Perkin Elmer catalog number NEX389). Fifty μL of compound/I-125 somatostatin in assay buffer are added per well to 96-well poly-propylene plate. Then 10 μg of SSTR1 membranes in 50 μL assay buffer are added per well. The plate is incubated for 60 minutes at room temperature. FilterMat A filters (Perkin Elmer catalog number 1450-421) are pre-soaked in 0.5% PEI (Sigma catalog number P3143). The contents of the assay plate are transferred to filters with a TomTech harvester and washed 5 times with 20 mM HEPES, 100 mM NaCl. The filters are dried in a microwave oven then transferred to sample bag containing a scintillator sheet (Perkin Elmer catalog number 1450-441). The scintillator sheets are melted to the filters using a heat block. The filters are then read in a MicroBeta scintillation counter. Binding Ki curves are generated using Activity Base for Screening Data Management and the results are reported as pIC50.

T1 sequence (P31391 whole entry): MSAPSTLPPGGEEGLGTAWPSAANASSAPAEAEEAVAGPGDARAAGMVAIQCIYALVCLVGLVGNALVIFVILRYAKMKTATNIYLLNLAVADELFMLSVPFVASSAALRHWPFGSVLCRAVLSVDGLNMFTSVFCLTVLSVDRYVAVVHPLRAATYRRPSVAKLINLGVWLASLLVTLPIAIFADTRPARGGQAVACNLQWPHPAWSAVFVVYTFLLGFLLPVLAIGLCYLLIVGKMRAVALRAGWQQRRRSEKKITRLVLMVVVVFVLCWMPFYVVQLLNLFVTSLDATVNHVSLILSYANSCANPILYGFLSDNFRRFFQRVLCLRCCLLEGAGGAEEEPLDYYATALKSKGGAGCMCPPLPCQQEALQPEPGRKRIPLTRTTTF
T2 sequence (P30872 whole entry): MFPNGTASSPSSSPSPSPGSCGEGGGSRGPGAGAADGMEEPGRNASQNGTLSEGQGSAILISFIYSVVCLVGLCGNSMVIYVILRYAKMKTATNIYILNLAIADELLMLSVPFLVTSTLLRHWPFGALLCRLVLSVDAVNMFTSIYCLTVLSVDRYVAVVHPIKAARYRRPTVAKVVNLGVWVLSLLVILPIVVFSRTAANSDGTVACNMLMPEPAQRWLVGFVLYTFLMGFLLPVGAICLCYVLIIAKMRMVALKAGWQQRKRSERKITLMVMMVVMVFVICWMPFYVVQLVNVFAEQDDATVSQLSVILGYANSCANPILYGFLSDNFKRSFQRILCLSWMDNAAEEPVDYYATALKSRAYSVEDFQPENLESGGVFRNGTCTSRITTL

| Compound | IC50 (SSTR4 [1]) | EC50 (SSTR4 [2]) | IC50 (SSTR1) |
| --- | --- | --- | --- |
| Cc1cccc2c(C(C)(C)NC(=O)C[C@@H]3CCCN3C)nccc12 [Example 18, (S)-N-(2-(5-methylisoquinolin-1-yl)propan-2-yl)-2-(1-methylpyrrolidin-2-yl)acetamide] | 100 nM | 7.94 nM | 7940 nM |
| Cc1cccc2c(C(C)(C)NC(=O)C[C@H]3CCCN3C)noc12 [Example 19, (R)-N-(2-(7-methylbenzo[d]isoxazol-3-yl)propan-2-yl)-2-(1-methylpyrrolidin-2-yl)acetamide] | 126 nM | 12.6 nM | 10000 nM |
| Cc1cccc2c(C(C)(C)NC(=O)C[C@@H]3CCCN3C)noc12 [Example 21, (S)-N-(2-(7-methylbenzo[d]isoxazol-3-yl)propan-2-yl)-2-(1-methylpyrrolidin-2-yl)acetamide] | 79.4 nM | 12.6 nM | 25100 nM |
| Cc1cc2ccccc2c(C(C)(C)NC(=O)C[C@@H]2CCCN2C)n1 [Example 22, (S)-N-(2-(3-methylisoquinolin-1-yl)propan-2-yl)-2-(1-methylpyrrolidin-2-yl)acetamide] | 63.1 nM | 7.94 nM | 2510 nM |
| CC(C)(NC(=O)C[C@@H]1CCCN1)c1nccc2ccccc12 [Example 23, (S)-N-(2-(isoquinolin-1-yl)propan-2-yl)-2-(pyrrolidin-2-yl)acetamide] | 1000 nM | 25.1 nM | 7940 nM |
| CN1CCC[C@H]1CC(=O)NC(C)(C)c1nccc2ccccc12 [Example 24, (S)-N-(2-(isoquinolin-1-yl)propan-2-yl)-2-(1-methylpyrrolidin-2-yl)acetamide] | 200 nM | 12.6 nM | 6310 nM |
| CCN1CCCC1CC(=O)NC(C)(C)c1nccc2occc12 (stereo not drawn) [Example 27, 2-(1-ethylpyrrolidin-2-yl)-N-(2-(furo[3,2-c]pyridin-4-yl)propan-2-yl)acetamide] | 501 nM | 31.6 nM | > 50100 nM |
| CN1CCCC1CC(=O)NC(C)(C)COc1ncccc1C(F)(F)F (stereo not drawn) [Example 28, N-(2-methyl-1-((3-(trifluoromethyl)pyridin-2-yl)oxy)propan-2-yl)-2-(1-methylpyrrolidin-2-yl)acetamide] | 251 nM | 20 nM | 15800 nM |
| CN1CCCCC1CC(=O)NC(C)(C)c1ccc(Cl)cc1 (stereo not drawn) [Example 30, N-(2-(4-chlorophenyl)propan-2-yl)-2-(1-methylpiperidin-2-yl)acetamide] | 126 nM | 31.6 nM | 31600 nM |
| CN1CCC[C@H]1CC(=O)NC(C)(C)c1nccc2occc12 [Example 34, (S)-N-(2-(furo[3,2-c]pyridin-4-yl)propan-2-yl)-2-(1-methylpyrrolidin-2-yl)acetamide] | 316 nM | 100 nM | > 50100 nM |
| CN1CCC[C@H]1CC(=O)NC(C)(C)c1ccc(Cl)cc1 [Example 35, (S)-N-(2-(4-chlorophenyl)propan-2-yl)-2-(1-methylpyrrolidin-2-yl)acetamide] | 316 nM | 63.1 nM | 12600 nM |
| CN1CCC[C@@H]1CC(=O)NC(C)(C)c1cc(Cl)ccc1Cl [Example 38, (R)-N-(2-(2,5-dichlorophenyl)propan-2-yl)-2-(1-methylpyrrolidin-2-yl)acetamide] | 316 nM | 63.1 nM | 25100 nM |
| CN1CCC[C@@H]1CC(=O)NC(C)(C)c1nccc2occc12 [Example 39, (R)-N-(2-(furo[3,2-c]pyridin-4-yl)propan-2-yl)-2-(1-methylpyrrolidin-2-yl)acetamide] | 794 nM | 50.1 nM | > 50100 nM |
| CN1CCC[C@@H]1CC(=O)NC(C)(C)c1ccc(Cl)cc1 [Example 40, (R)-N-(2-(4-chlorophenyl)propan-2-yl)-2-(1-methylpyrrolidin-2-yl)acetamide] | 200 nM | 50.1 nM | 20000 nM |
| Cc1cccc2c(C(C)(C)NC(=O)CC3CCCCN3C)noc12 (stereo not drawn) [Example 41, N-(2-(7-methylbenzo[d]isoxazol-3-yl)propan-2-yl)-2-(1-methylpiperidin-2-yl)acetamide] | 63.1 nM | 3.16 nM | 6310 nM |
| Cc1cnc(C(C)(C)NC(=O)CC2CCCCN2C)c2ccccc12 (stereo not drawn) [Example 42, N-(2-(4-methylisoquinolin-1-yl)propan-2-yl)-2-(1-methylpiperidin-2-yl)acetamide] | 3.16 nM | 0.794 nM | 631 nM |
| CN1CCCCC1CC(=O)NC(C)(C)c1cc(Cl)ccc1Cl (stereo not drawn) [Example 45, N-(2-(2,5-dichlorophenyl)propan-2-yl)-2-(1-methylpiperidin-2-yl)acetamide] | 158 nM | 25.1 nM | 7940 nM |
| Cc1cccnc1OCC(C)(C)NC(=O)C[C@H]1CCCN1C [Example 46, (R)-N-(2-methyl-1-((3-methylpyridin-2-yl)oxy)propan-2-yl)-2-(1-methylpyrrolidin-2-yl)acetamide] | 398 nM | 12.6 nM | 25100 nM |

More lines, now with the values ahead:

| IC50 (SSTR4 [1]) | EC50 (SSTR4 [2]) | IC50 (SSTR1) | Compound |
| --- | --- | --- | --- |
| 398 nM | 12.6 nM | 25100 nM | Cc1cccnc1OCC(C)(C)NC(=O)C[C@@H]1CCCN1C [Example 47, (S)-N-(2-methyl-1-((3-methylpyridin-2-yl)oxy)propan-2-yl)-2-(1-methylpyrrolidin-2-yl)acetamide] |
| 316 nM | 25.1 nM | 15800 nM | CN1CCC[C@H]1CC(=O)NC(C)(C)COc1ncccc1C(F)(F)F [Example 48, (S)-N-(2-methyl-1-((3-(trifluoromethyl)pyridin-2-yl)oxy)propan-2-yl)-2-(1-methylpyrrolidin-2-yl)acetamide] |
| 200 nM | 25.1 nM | 15800 nM | CN1CCC[C@@H]1CC(=O)NC(C)(C)COc1ncccc1C(F)(F)F [Example 49, (R)-N-(2-methyl-1-((3-(trifluoromethyl)pyridin-2-yl)oxy)propan-2-yl)-2-(1-methylpyrrolidin-2-yl)acetamide] |
| 126 nM | 15.8 nM | 12600 nM | CCN1CCCC1CC(=O)NC(C)(C)COc1ncccc1C(F)(F)F (stereo not drawn) [Example 50, 2-(1-ethylpyrrolidin-2-yl)-N-(2-methyl-1-((3-(trifluoromethyl)pyridin-2-yl)oxy)propan-2-yl)acetamide] |
| 1000 nM | 100 nM | 39800 nM | Cc1cccnc1OCC1(NC(=O)C[C@@H]2CCCN2C)CCC1 [Example 55, (S)-N-(1-(((3-methylpyridin-2-yl)oxy)methyl)cyclobutyl)-2-(1-methylpyrrolidin-2-yl)acetamide] |
| 100 nM | 3.98 nM | 12600 nM | CCN1CCC[C@@H]1CC(=O)NC(C)(C)COc1ncccc1C(F)(F)F [Example 57, (R)-2-(1-ethylpyrrolidin-2-yl)-N-(2-methyl-1-((3-(trifluoromethyl)pyridin-2-yl)oxy)propan-2-yl)acetamide] |
| 501 nM | 100 nM | 25100 nM | C[C@H](NC(=O)CC1CCCCN1C)c1ccc(Cl)cc1 (stereo partly drawn) [Example 60, N-((S)-1-(4-chlorophenyl)ethyl)-2-(1-methylpiperidin-2-yl)acetamide] |
| 251 nM | 25.1 nM | 25100 nM | CCN1CCCC1CC(=O)NC(C)(C)COc1ncccc1C (stereo not drawn) [Example 62, 2-(1-ethylpyrrolidin-2-yl)-N-(2-methyl-1-((3-methylpyridin-2-yl)oxy)propan-2-yl)acetamide] |
| 79.4 nM | 5.01 nM | 1260 nM | Cc1cc2ccccc2c(C(C)(C)NC(=O)C[C@H]2CCCN2C)n1 [Example 70, (R)-N-(2-(3-methylisoquinolin-1-yl)propan-2-yl)-2-(1-methylpyrrolidin-2-yl)acetamide] |
| 251 nM | 31.6 nM | 25100 nM | Cc1cccnc1OCC1(NC(=O)C(C)C2CCCN2C)CC1 (stereo not drawn) [Example 71, N-(1-(((3-methylpyridin-2-yl)oxy)methyl)cyclopropyl)-2-(1-methylpyrrolidin-2-yl)propanamide] |
| 3160 nM | 79.4 nM | > 50100 nM | Cc1cccnc1OCC(C)(C)NC(=O)CC12CCCN1CCC2 [Example 77, N-(2-methyl-1-((3-methylpyridin-2-yl)oxy)propan-2-yl)-2-(tetrahydro-1H-pyrrolizin-7a(5H)-yl)acetamide] |

Source: patent US20230150981A1, “N-HETEROARYLALKYL-2-(HETEROCYCLYL AND HETEROCYCLYLMETHYL) ACETAMIDE DERIVATIVES AS SSTR4 AGONISTS” (Takeda Pharmaceutical Compnay Limited, priority 2020, published 2023)
